{"source": "patent US4173629A", "about": "“Antibiotic S 31794/F-1” (Sandoz Ltd., priority 1975, dated 1979)", "key": {"Stability": {"test": "Stability", "assay_type": "physicochemical"}, "Microsporum canis": {"test_system": "Microsporum canis", "test": "MIC, series dilution test", "assay_type": "cell-based", "conditions": "malt extract medium (2%), pH 5.2-5.4, 27° C., 48 to 72 hours", "protocol": "(§1) The MIC (minimum inhibiting concentration) values are obtained in the well known series dilution test. The incubation was effected in a malt extract medium (2%) having a pH of 5.2-5.4 at 27° C. for 48 to 72 hours. The test strains are well known and have been deposited in the fungi collection of the firm Sandoz, Basel, where they are available for examination."}, "Candida tropicalis": {"test_system": "Candida tropicalis", "test": "MIC, series dilution test", "assay_type": "cell-based", "conditions": "malt extract medium (2%), pH 5.2-5.4, 27° C., 48 to 72 hours", "protocol": "as §1"}, "Curvularia lunata": {"test_system": "Curvularia lunata", "test": "MIC, series dilution test", "assay_type": "cell-based", "conditions": "malt extract medium (2%), pH 5.2-5.4, 27° C., 48 to 72 hours", "protocol": "as §1"}, "Neurospora crassa": {"test_system": "Neurospora crassa", "test": "MIC, series dilution test", "assay_type": "cell-based", "conditions": "malt extract medium (2%), pH 5.2-5.4, 27° C., 48 to 72 hours", "protocol": "as §1"}, "Aspergillus fumigatus": {"test_system": "Aspergillus fumigatus", "test": "MIC, series dilution test", "assay_type": "cell-based", "conditions": "malt extract medium (2%), pH 5.2-5.4, 27° C., 48 to 72 hours", "protocol": "as §1"}, "Aspergillus niger": {"test_system": "Aspergillus niger", "test": "MIC, series dilution test", "assay_type": "cell-based", "conditions": "malt extract medium (2%), pH 5.2-5.4, 27° C., 48 to 72 hours", "protocol": "as §1"}, "Candida krusei": {"test_system": "Candida krusei", "test": "MIC, series dilution test", "assay_type": "cell-based", "conditions": "malt extract medium (2%), pH 5.2-5.4, 27° C., 48 to 72 hours", "protocol": "as §1"}, "Trichophyton quinckeanum": {"test_system": "Trichophyton quinckeanum", "test": "MIC, series dilution test", "assay_type": "cell-based", "conditions": "malt extract medium (2%), pH 5.2-5.4, 27° C., 48 to 72 hours", "protocol": "as §1"}, "Candida albicans": {"test_system": "Candida albicans", "test": "MIC, series dilution test", "assay_type": "cell-based", "conditions": "malt extract medium (2%), pH 5.2-5.4, 27° C., 48 to 72 hours", "protocol": "as §1"}, "[1]": {"test_system": "Candida albicans Blast. res.", "test": "MIC, series dilution test", "assay_type": "cell-based", "conditions": "malt extract medium (2%), pH 5.2-5.4, 27° C., 48 to 72 hours", "protocol": "as §1"}, "Candida albicans 439": {"test_system": "Candida albicans 439", "test": "MIC, series dilution test", "assay_type": "cell-based", "conditions": "malt extract medium (2%), pH 5.2-5.4, 27° C., 48 to 72 hours", "protocol": "as §1"}, "Blastomyces dermatitidis": {"test_system": "Blastomyces dermatitidis", "test": "MIC, series dilution test", "assay_type": "cell-based", "conditions": "malt extract medium (2%), pH 5.2-5.4, 27° C., 48 to 72 hours", "protocol": "as §1"}, "Candida albicans 5897": {"test_system": "Candida albicans 5897", "test": "MIC, series dilution test", "assay_type": "cell-based", "conditions": "malt extract medium (2%), pH 5.2-5.4, 27° C., 48 to 72 hours", "protocol": "as §1"}, "Candida tropicalis CK 4": {"test_system": "Candida tropicalis CK 4", "test": "MIC, series dilution test", "assay_type": "cell-based", "conditions": "malt extract medium (2%), pH 5.2-5.4, 27° C., 48 to 72 hours", "protocol": "as §1"}, "Candida albicans H 12": {"test_system": "Candida albicans H 12", "test": "MIC, series dilution test", "assay_type": "cell-based", "conditions": "malt extract medium (2%), pH 5.2-5.4, 27° C., 48 to 72 hours", "protocol": "as §1"}, "[2]": {"test_system": "Trichophyton mentagrophytes", "test": "MIC, series dilution test", "assay_type": "cell-based", "conditions": "malt extract medium (2%), pH 5.2-5.4, 27° C., 48 to 72 hours", "protocol": "as §1"}, "Sporotrichum schenkii": {"test_system": "Sporotrichum schenkii", "test": "MIC, series dilution test", "assay_type": "cell-based", "conditions": "malt extract medium (2%), pH 5.2-5.4, 27° C., 48 to 72 hours", "protocol": "as §1"}, "[3]": {"test_system": "yeast and fungi, particularly Candida strains", "test": "activity spectrum, yeast and fungi", "assay_type": "cell-based", "protocol": "as §1"}, "Solubility": {"test": "Solubility", "assay_type": "physicochemical"}, "[4]": {"test_system": "usual gram-positive and gram-negative bacteria", "test": "activity spectrum, bacteria", "assay_type": "cell-based"}}, "note": "*1 amine or outer side, *2 acyl side, *3 side chain or, on linkers, in order; H or OH if unused. Where a SMILES comes first, the peptide text is derived from it. Bridges are numbered along the chain shown (N, C = ends). [ ]: non-standard residue; d: D form. The star is where a group is joined. Orn(4R-OH,5R-OH) = O=C([C@H](C[C@@H](O)[C@@H](O)N[*:3])N[*:1])[*:2]; hTyr(3S-OH,4S-OH) = N[C@H](C(=O)O)[C@H](O)[C@@H](O)c1ccc(O)cc1; Pro(3S-OH,4S-Me) = C[C@H]1CN[C@H](C(=O)O)[C@H]1O; Gln(3R-OH) = NC(=O)C[C@@H](O)[C@H](N)C(=O)O; Hyp = O=C(O)[C@@H]1C[C@@H](O)CN1; Myristoyl = CCCCCCCCCCCCCC(=O)*", "data": [{"molecule": "CCCCCCCCCCCCCC(=O)N[C@H]1C[C@@H](O)[C@@H](O)NC(=O)[C@@H]2[C@@H](O)[C@@H](C)CN2C(=O)[C@H]([C@H](O)CC(N)=O)NC(=O)[C@H]([C@H](O)[C@@H](O)c2ccc(O)cc2)NC(=O)[C@@H]2C[C@@H](O)CN2C(=O)[C@H]([C@@H](C)O)NC1=O", "note": "[S 31794/F-1] (Myristoyl-[Orn(4R-OH,5R-OH)]T[Hyp][hTyr(3S-OH,4S-OH)][Gln(3R-OH)][Pro(3S-OH,4S-Me)]; lactam 1-C)", "values": [{"measurement": "Stability", "setting": "Stability; alkaline or strong acidic conditions", "result": "decomposes, losing its anti-fungal activity"}, {"measurement": "Stability", "setting": "Stability; aqueous methanol at pH 3-7.5", "result": "stable"}, {"measurement": "MIC (minimum inhibiting concentration)", "setting": "Microsporum canis", "result": 100, "unit": "µg/mL"}, {"measurement": "MIC (minimum inhibiting concentration)", "setting": "Candida tropicalis", "result": 0.3, "unit": "µg/mL"}, {"measurement": "MIC (minimum inhibiting concentration)", "setting": "Curvularia lunata", "result": "> 100", "unit": "µg/mL"}, {"measurement": "MIC (minimum inhibiting concentration)", "setting": "Neurospora crassa", "result": "> 100", "unit": "µg/mL"}, {"measurement": "MIC (minimum inhibiting concentration)", "setting": "Aspergillus fumigatus", "result": 32, "unit": "µg/mL"}, {"measurement": "MIC (minimum inhibiting concentration)", "setting": "Aspergillus niger", "result": 100, "unit": "µg/mL"}, {"measurement": "MIC (minimum inhibiting concentration)", "setting": "Candida krusei", "result": 1, "unit": "µg/mL"}, {"measurement": "MIC (minimum inhibiting concentration)", "setting": "Trichophyton quinckeanum", "result": "> 100", "unit": "µg/mL"}, {"measurement": "MIC (minimum inhibiting concentration)", "setting": "Candida albicans", "result": 0.3, "unit": "µg/mL"}, {"measurement": "MIC (minimum inhibiting concentration)", "setting": "[1]", "result": 0.03, "unit": "µg/mL"}, {"measurement": "MIC (minimum inhibiting concentration)", "setting": "Candida albicans 439", "result": 0.03, "unit": "µg/mL"}, {"measurement": "MIC (minimum inhibiting concentration)", "setting": "Blastomyces dermatitidis", "result": 100, "unit": "µg/mL"}, {"measurement": "MIC (minimum inhibiting concentration)", "setting": "Candida albicans 5897", "result": 0.3, "unit": "µg/mL"}, {"measurement": "MIC (minimum inhibiting concentration)", "setting": "Candida tropicalis CK 4", "result": 0.01, "unit": "µg/mL"}, {"measurement": "MIC (minimum inhibiting concentration)", "setting": "Candida albicans H 12", "result": 0.3, "unit": "µg/mL"}, {"measurement": "MIC (minimum inhibiting concentration)", "setting": "[2]", "result": 32, "unit": "µg/mL"}, {"measurement": "MIC (minimum inhibiting concentration)", "setting": "Sporotrichum schenkii", "result": "> 100", "unit": "µg/mL"}, {"measurement": "effect against yeast and fungi, particularly against Candida strains", "setting": "[3]", "result": "pronounced effect"}, {"measurement": "Solubility", "setting": "Solubility; in methanol, ethanol, pyridine and dimethyl sulphoxide", "result": "easily soluble"}, {"measurement": "Solubility", "setting": "Solubility; in water, chloroform, ethyl acetate, diethyl ether, benzene and hexane", "result": "difficulty soluble"}, {"measurement": "effect against the usual gram-positive and gram-negative bacteria", "setting": "[4]", "result": "does not exhibit a significant effect"}]}]}
